Laboratory results published in patent publication US20100292292A1, “Treatment of Neurodegenerative Diseases Using Indatraline Analogs” (LINK MEDICINE CORPORATION, priority 2007, published 2010).
“Also recorded” adds a separate entry of the source.

Columns and labels:
[1] = target: T1, purified recombinant human α-synuclein (Homo sapiens, UniProt P37840); test: α-synuclein structure formation/aggregation in the presence of HFIP (Thioflavin T fluorescence, fluorescence polarization); format: binding; conditions: α-synuclein 20 μM, 25 mM Tris pH 8.0, 3.1% HFIP, room temperature, compound 50-400 μM, Thioflavin T fluorescence and/or fluorescence polarization
Method: HFIP induces rapid structure formation and aggregation of α-synuclein (Munishkina et al., Biochemistry 42:2720-30, 2003; Maiti, Apetri et al., J Am Chem Soc, 126:2399-408, 2004; each of which is incorporated herein by reference). Compounds were incubated with purified recombinant human α-synuclein (20 μM) in a buffer containing HFIP (25 mM Tris, pH 8.0, 3.1% HFIP) at room temperature. Structure formation was monitored by Thioflavin T fluorescence and fluorescence polarization. Thioflavin T fluorescence can be used to measure aggregation of amyloidogenic proteins, including α-synuclein (excitation, 440 nm; emission, 495 nm) (Naiki et al., Anal. Biochem., 177:244-9, 1989; Conway et al., Biochemistry, 39:2552-63, 2000; each of which is incorporated herein by reference). Average molecular size was monitored by fluorescence polarization using human α-synuclein covalently conjugated to Alexa Fluor 594 (excitation, 546 nm; emission, 620 nm). Assays were performed in a 384-well plate and readings taken directly from each well over time.

[2] = tested on: α-synuclein-induced retinal degeneration in transgenic Drosophila (human A30P α-synuclein); test: Drosophila retinal assay; format: in vivo; conditions: transgenic Drosophila expressing human A30P α-synuclein in retina, drug in food
Description: Human A30P α-synuclein expression was directed to the retina with the glass multimer reporter (GMR) promoter. The transgene induces progressive retinal degeneration. Dry food (Formula 4-24; Carolina Biological Supply) was rehydrated with water or an aqueous solution of drug. Drug concentration refers to the final concentration of compound in the aqueous solution. Transgenic female flies less than 12-hours-old were placed on either untreated or drug-embedded food. For analysis of retinal degeneration, fly heads were annealed to a glass microscope, then eyes were transilluminated following optical neutralization of the corneas with immersion oil and examined under a 100× lens (Franceschini, N., Pupil and pseudopupil in the compound eye of Drosophila. In Information processing in the visual system of Drosophila, Wehner, R., Ed. Springer: Berlin, 1972; pp 75-82; incorporated here in by reference). For quantitation, 20-50 ommatidia per eye of at least 12 eyes were examined per group. The percent normal ommatidia was calculated for each eye and averaged for each sample set. Indatraline suppressed α-synuclein-induced retinal degeneration (FIG. 26A).

[3] = tested on: dopaminergic neurons (primary rat embryonic midbrain culture) infected with lentivirus encoding human A53T α-synuclein; test: Primary neuronal toxicity assay; format: cell-based; conditions: for decrease of α-synuclein neurotoxicity in dopaminergic neurons (TH+ cells): E17 rat midbrain culture, A53T α-synuclein lentivirus, 3 days treatment
Description: Indatraline decreased α-synuclein neurotoxicity in dopaminergic neurons. Midbrain cultures will be prepared from E17 rat ventral mesencephalon as described in a published protocol (Xu, J.; Kao, S. Y.; Lee, F. J.; Song, W.; Jin, L. W.; Yankner, B. A., Dopamine-dependent neurotoxicity of alpha-synuclein: a mechanism for selective neurodegeneration in Parkinson disease. Nat Med 2002, 8, (6), 600-6; incorporated herein by reference). Cultured cells were infected with a recombinant lentivirus encoding human A53T α-synuclein (A53T) or a control virus (none). Cells were treated with various concentrations of indatraline (black bars) for 3 days. Cells were then fixed and immunostained for Microtubule-associated protein 2, which stains all neurons, and Tyrosine Hydroxylase, a marker for dopaminergic neurons. Toxicity of A53T α-synuclein toward dopaminergic neurons was determined by calculating the percentage neurons positive for tyrosine hydroxylase (TH^+ cells).

[4] = target: T1, purified recombinant human α-synuclein; test: α-synuclein aggregation in aqueous solution (Thioflavin T fluorescence, fluorescence polarization); format: biochemical; conditions: α-synuclein 70 μM, 20 mM Bis-tris propane pH 7.4, 100 mM LiCl, 37° C., gentle agitation, Thioflavin T fluorescence and/or fluorescence polarization
Method: Compounds were incubated with purified recombinant human α-synuclein (70 μM) in an aqueous buffer system (20 mM Bis-tris propane, pH 7.4, 100 mM LiCl) at 37° C. with gentle agitation. Structure formation was monitored by Thioflavin T fluorescence and/or fluorescence polarization. Thioflavin T fluorescence can be used to measure aggregation of amyloidogenic proteins, including α-synuclein (excitation, 440 nm; emission, 495 nm) (Naiki, H.; Higuchi, K.; Hosokawa, M.; Takeda, T., Fluorometric determination of amyloid fibrils in vitro using the fluorescent dye, thioflavin T1. Anal Biochem 1989, 177, (2), 244-9; incorporated herein by reference). Average molecular size was monitored by fluorescence polarization using human α-synuclein covalently conjugated to Alexa Fluor 594 (excitation, 546 nm; emission, 620 nm) (Luk, K. C.; Hyde, E. G.; Trojanowski, J. Q.; Lee, V. M., Sensitive fluorescence polarization technique for rapid screening of alpha-synuclein oligomerization/fibrillization inhibitors. Biochemistry 2007, 46, (44), 12522-9; incorporated herein by reference).

alpha-synuclein = alpha-synuclein (Homo sapiens, UniProt P37840); test: Solution NMR binding studies
Description: Importantly, stabilization of such off-pathway conformers can reduce the rate of α-synuclein fibrillization. For instance, sequence changes that promote formation of helical conformers also reduce the rate of α-synuclein fibrillization. A novel screen was devised to identify small molecules capable of promoting off-pathway conformers of α-synuclein. A screen of 640 central nervous system (CNS-active) compounds, including many approved CNS drugs, identified an active compound, indatraline (INDAT), a monoamine reuptake inhibitor that has been widely used as a research tool.

SMILES	binding to α-synuclein and effect on the rate of structure formation/aggregation in the presence of HFIP [1]	suppression of α-synuclein-induced retinal degeneration (percent normal ommatidia) [2]	suppression of α-synuclein-induced retinal degeneration (percent normal ommatidia) ([2]; listed as indatraline)	decrease of α-synuclein neurotoxicity in dopaminergic neurons (TH+ cells) [3]	decrease of α-synuclein neurotoxicity in dopaminergic neurons (TH+ cells) ([3]; listed as indatraline)	IC50 ([3]; Neuron, primary rat embryonic midbrain culture, FIG. 26B, read-out: IC50, reduction of alpha-synuclein toxicity in dopaminergic neurons)	binding to α-synuclein and effect on the rate of structure formation/aggregation in the presence of HFIP ([1]; listed as indatraline)	delay of α-synuclein aggregation in aqueous solution [4]	delay of α-synuclein aggregation in aqueous solution ([4]; listed as indatraline)	binding site on alpha-synuclein by solution NMR (alpha-synuclein)
c1ccc(CNCC2CC(c3ccccc3)c3ccccc32)cc1 (stereo not drawn) [LNK-1521]	bind to α-synuclein and affect the rate of protein aggregation	–	–	–	–	–	–	–	–	–
CN(C)C1CC(Cc2ccc(Cl)c(Cl)c2)c2ccccc21 (stereo not drawn) [LNK-122]	binds to α-synuclein and affects the rate of structure formation; also recorded: bind to α-synuclein and affect the rate of protein aggregation	–	–	–	–	–	–	–	–	–
CN[C@@H]1C[C@@H](c2ccc(Cl)c(Cl)c2)c2ccccc21 [Indatraline, indatraline]	bind to α-synuclein and affect the rate of protein aggregation	suppresses α-synuclein-induced retinal degeneration; also recorded: decreases α-synuclein-mediated retinal degeneration	reduced the toxicity of alpha-synuclein; also recorded: suppress α-synuclein-induced retinal degeneration	diminished toxicity of A53T α-synuclein toward dopaminergic neurons in a dose-dependent manner; also recorded: decreases α-synuclein neurotoxicity	reduced the toxicity of alpha-synuclein; also recorded: decrease α-synuclein neurotoxicity	~500 nM	binds to α-synuclein and affects the rate of structure formation	delay the initiation of α-synuclein aggregation	reduced the rate of alpha-synuclein fibrillization (and nucleation); also recorded: delays aggregation of α-synuclein in a dose-dependent manner	binds at a sequence near the C-terminus of alpha-synuclein
